“And” between values parts separate entries of the source, which are not always exact repeats. Equal entries are not always repeated.
Tested on: 885724-159-R-J1-PDC complex spheroid viability
Experiment: Anticancer human tumor 885724-159-R-J1-PDC patient-derived pancreatic adenocarcinoma cell line growth inhibition [GQUAD]
Settings: for viability, T/C: stronger effect = lower value
From the text: DNA G-quadruplex Stabilizer Agents in Combinations in Complex Spheroids
A high-throughput screen of multi-cell type tumor spheroids was designed to identify active combinations of DNA G-quadruplex stabilizer agents and targeted small molecules. Complex spheroids include a stromal component modeled by human endothelial cells (HUVEC) and fibroblasts modeled by human mesenchymal stem cells (MSCs). The concentration ranges selected for each drug and investigational agent were based upon clinically achievable concentrations if the clinical Cmax of the agent was known.
Compounds. The drugs and investigational agents: pidnarulex (CX-5461; NSC782164), APTO-253 (NSC789042), BRACO-19 (NSC847499), peposertib (NSC802822), ceralasertib (NSC780249), elimusertib (NSC800525), camonsertib (NSC841442), AZD-1390 (NSC803789), olaparib (NSC753686), talazoparib (NSC767125), ART-558 (NSC835418), sotorasib (NSC818433), MRTX-1133 (NSC836407), SN-38 (NSC673596), topotecan (NSC609699), etoposide (NSC141540), doxorubicin (NSC123127), gemcitabine (NSC613327), 5-fluorouracil (NSC19893), paclitaxel (NSC125973), vemurafenib (NSC761431), panobinostat (NSC761190), R-306465 (JNJ-16241199; NSC773264), adavosertib (NSC754352), TP-3654 (NSC805149), carboplatin (NSC241240), KSQ-4279 (NSC840948), and staurosporine (NSC755774) were obtained from the National Cancer Institute (NCI) Developmental Therapeutics Program Chemical Repository (34). The FDA-approved anticancer drug set is available from the NCI Developmental Therapeutics Program. […] The stock solutions were prepared in dimethyl sulfoxide (DMSO, Sigma-Aldrich, St. Louis, MO, cat. D2650) at 800-fold the tested concentration and stored at -70 degrees C prior to their use. All drugs and investigational agents were tested over a range starting from a high concentration at or near the clinical Cmax and decreasing in half-log increments. If the clinical Cmax for an agent had not been determined, the highest concentration tested was 10 microM.
2.3 Cell Culture. All cells were maintained in an incubator at 37 degrees C and 5% CO2 with 95% humidity. The PDC lines were cultured according to standard operating procedures established by the NCI PDMR. All PDCs were thawed and cultured in Matrigel-coated flasks prepared with a working solution of 1X Ham's F-12 nutrient mix, without supplementation (Invitrogen, cat. 11765054), 100 U/mL penicillin-streptomycin (Invitrogen, cat. 15140122), and 2.5% Matrigel (Corning Inc., cat. 354248) for the first three passages. The 857933-349-R-J2-PDC line was cultured in 6C/Colon 1B media, which includes advanced DMEM/F-12 (Thermo Fisher Scientific, cat. 12634028), 10 mM HEPES (Thermo Fisher Scientific, cat. 15630080), 1X GlutaMAX supplement (Thermo Fisher Scientific, cat. 35050061), 0.1 mg/mL primocin (InvivoGen, cat. ant-pm-2), 10% defined fetal bovine serum, heat inactivated (HyClone Laboratories Inc., cat. SH30070.03HI), 50% L-WRN conditioned media (ATCC, cat. CRL-3276), 1.25 mM N-Acetyl-L-cysteine (Sigma-Aldrich, cat. A9165), 10 mM nicotinamide (Sigma-Aldrich, cat. N0636), 1X B-27 supplement (Thermo Fisher Scientific, cat. 17504044), 1X N-2 supplement (Thermo Fisher Scientific, cat. 17502048), 10 microM Y-27632 dihydrochloride (Tocris Bioscience, cat. 1254), and 50 ng/mL human EGF recombinant protein (Thermo Fisher Scientific, cat. PHG0311). The 485176-168-R4-J1-PDC line was cultured in Panc media, which includes all 6C/Colon 1B media components plus 100 ng/mL human FGF-10 (Thermo Fisher Scientific, cat. 100-26), 500 nM SB-431542 (Selleckchem, cat. S1067), and gastrin (Tocris, cat. 3006).
[…]
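Also: spheroids exposed to agents for seven days before readout.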
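For viability, T/C in this document: percent of vehicle control viability where 100% = DMSO wells.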

| SMILES | viability, T/C (compound 0.0316 µM) | viability, T/C (compound 0.1 µM) | viability, T/C (compound 0.316 µM) | viability, T/C (compound 1 µM) | viability, T/C (compound 3.16 µM) | viability, T/C (compound 10 µM) | IC50 (curve of compound) | viability, T/C (compound 0.000999 µM) | viability, T/C (compound 0.00316 µM) | viability, T/C (compound 0.00999 µM) | viability, T/C (compound 0.0999 µM) | IC50 (compound alone, run of 02/26/2024) [nM] |
| --- | --- | --- | --- | --- | --- | --- | --- | --- | --- | --- | --- | --- |
| C#Cc1c(F)ccc2cc(O)cc(-c3ncc4c(N5CC6CCC(C5)N6)nc(OCC56CCCN5CC(F)C6)nc4c3F)c12 (stereo unspecified) | 97.3% and 99.6% and 91.8% | 101% and 92.4% and 93% | 89.8% and 94.6% and 104% | 90.2% and 88.2% and 81.5% | 53.6% and 55.8% and 58.6% | 30% and 25.7% and 22.7% | 3800 nM and 3950 nM and 4070 nM |  |  |  |  |  |
| C=CC(=O)N1CCN(c2nc(=O)n(-c3c(C)ccnc3C(C)C)c3nc(-c4c(O)cccc4F)c(F)cc23)C(C)C1 (stereo unspecified) | 96.5% and 93.7% and 94.2% | 88.8% and 90% and 101% | 98.2% and 110% (2×) | 117% and 108% and 105% | 95.2% and 106% and 104% | 87% and 89.9% and 96.3% | > 10000 nM |  |  |  |  |  |
| C=CCn1c(=O)c2cnc(Nc3ccc(N4CCN(C)CC4)cc3)nc2n1-c1cccc(C(C)(C)O)n1 | 90.4% and 95.2% and 93.1% | 81.6% and 90.3% and 88.1% | 68.6% and 78.2% and 86% | 75.6% and 70.3% and 89.2% | 65.7% and 58% and 84% | 74.5% and 66.7% and 91.9% | > 10000 nM |  |  |  |  |  |
| CC(=O)O[C@H]1C(=O)[C@@]2(C)[C@H]([C@H](OC(=O)c3ccccc3)[C@]3(O)C[C@H](OC(=O)[C@H](O)[C@@H](NC(=O)c4ccccc4)c4ccccc4)C(C)=C1C3(C)C)[C@]1(OC(C)=O)CO[C@@H]1C[C@@H]2O | 100% and 92% and 97.8% | 66.6% and 80.5% and 89.4% | 82.2% and 93.6% and 90.7% | 83.6% and 86.1% and 96.7% | 89.6% and 91% and 100% | 93% and 104% and 107% | > 10000 nM |  |  |  |  |  |
| CC(C)(O)C1CCC(Nc2ccc3ncc(-c4cccc(C(F)(F)F)c4)n3n2)CC1 (stereo unspecified) | 110% and 93.1% and 96.4% | 95% and 90.9% and 102% | 85.7% and 91.3% and 93.8% | 75.3% and 74.9% and 73.6% | 45.3% and 41.7% and 38.7% | 46% and 47.1% and 39.8% | 4440 nM and 2560 nM and 2250 nM |  |  |  |  |  |
| CC(C)n1c(=O)n(C)c2cnc3cc(F)c(-c4ccc(OCCCN5CCCCC5)nc4)cc3c21 | 102% (2×) and 106% | 100% and 103% and 96.6% | 83.3% and 94.1% and 102% | 107% and 108% and 86.7% | 95.5% and 86.1% and 102% | 87.7% and 68.2% and 77.4% | > 10000 nM |  |  |  |  |  |
| CC1COCCN1c1cc(-c2ccnn2C)c2ccnc(-c3ccn[nH]3)c2n1 (stereo unspecified) | 104% and 98% and 79.1% | 93% and 80.3% and 83.4% | 83.2% and 68.7% and 75% | 69.1% and 67.7% and 69.3% | 58.6% and 51.1% and 45.9% | 45.6% and 52.2% and 42.1% | 6760 nM and > 10000 nM and 2650 nM |  |  |  |  |  |
| CC1COCCN1c1cc(C2(O)CC3CCC(C2)O3)c2cnn(-c3ccn[nH]3)c2n1 (stereo unspecified) | 86.4% and 103% and 91.5% | 85.4% and 80.9% and 79.5% | 74.2% and 74.5% and 71.8% | 48.6% and 56% and 53.5% | 37.3% and 46.2% and 47.5% | 28.3% and 38.1% and 36.4% | 1010 nM and 2210 nM and 1990 nM |  |  |  |  |  |
| CC1COCCN1c1cc(C2(S(C)(=N)=O)CC2)nc(-c2ccnc3[nH]ccc23)n1 (stereo unspecified) | 105% (2×) and 97.6% | 105% and 96.7% and 98.2% | 105% and 94.7% and 99.6% | 97.2% and 88.8% and 98.5% | 84.7% and 82.4% and 109% | 65.2% and 74.3% and 86.2% | > 10000 nM |  |  |  |  |  |
| CCCS(=O)(=O)Nc1ccc(F)c(C(=O)c2c[nH]c3ncc(-c4ccc(Cl)cc4)cc23)c1F | 98.5% and 105% and 90.7% | 90.2% and 105% and 92.3% | 111% and 124% and 116% | 136% and 138% and 124% | 148% and 137% and 134% | 82% and 77.5% and 78.7% | > 10000 nM |  |  |  |  |  |
| CC[C@@]1(O)C(=O)OCc2c1cc1n(c2=O)Cc2cc3c(CN(C)C)c(O)ccc3nc2-1 | 80.8% and 92.5% and 101% |  | 74.5% and 64.7% and 71.3% |  |  |  | > 316 nM | 86.3% and 93.6% and 89.6% | 104% and 87.4% and 88.3% | 99.2% and 92.9% and 93% | 85.6% and 74.7% and 90.8% |  |
| CCc1c2c(nc3ccc(O)cc13)-c1cc3c(c(=O)n1C2)COC(=O)[C@]3(O)CC | 66.7% and 67.3% and 62.1% |  | 17.2% and 8.7% and 16.4% |  |  |  | 110 nM and 64.3 nM and 101 nM | 85.3% and 91.4% and 93.3% | 87.5% and 81.8% and 85.2% | 63.2% and 62.8% and 77.4% | 60.3% and 45.8% and 59% |  |
| CN(C)c1ccc(Nc2c3ccc(NC(=O)CCN4CCCC4)cc3nc3cc(NC(=O)CCN4CCCC4)ccc23)cc1 | 96.8% [middle of 12 runs] | 97.9% [middle of 12 runs] | 92.3% [middle of 12 runs] | 79.7% [middle of 12 runs] | 78.5% [middle of 12 runs] | 84.1% [middle of 12 runs] |  |  |  |  |  | > 10000 |

Reference: PubChem BioAssay AID2060502 (Molecular Pharmacology Branch, DTP, NCI, 2025)
